Test results taken from ChEMBL document CHEMBL3112450, “Synthesis and in vitro antitumor evaluation of primary amine substituted quinazoline linked benzimidazole” (Bioorg Med Chem Lett, 2014).

How the values were obtained:
Format in all cases: functional
NCI-H23 [1] = assay: Cytotoxicity against human NCI-H23 cells after 48 hrs by SRB assay; conditions: NCI-H23, 48 h
SK-MEL-2 [2] = assay: Cytotoxicity against human SK-MEL-2 cells assessed as cell growth at 10^-7 M after 48 hrs by SRB assay; conditions: SK-MEL-2, 48 h, read-out: Activity
SNB-19 = assay: Cytotoxicity against human SNB19 cells assessed as cell growth at 10^-7 M after 48 hrs by SRB assay; conditions: SNB-19, 48 h, read-out: Activity
[3] = Cytotoxicity against human Hs578T cells assessed as cell growth at 10^-8 M after 48 hrs by SRB assay; conditions: Hs-578T, read-out: Activity
MDA-MB-231 [4] = assay: Cytotoxicity against human MDA-MB-231 cells assessed as cell growth at 10^-8 M after 48 hrs by SRB assay; conditions: MDA-MB-231, 48 h, read-out: Activity
[5] = Cytotoxicity against human OVCAR5 cells assessed as cell growth at 10^-4 M after 48 hrs by SRB assay; conditions: OVCAR-5, 48 h, read-out: Activity
SK-MEL-5 [6] = assay: Cytotoxicity against human SK-MEL-5 cells assessed as cell growth at 10^-4 M after 48 hrs by SRB assay; conditions: SK-MEL-5, 48 h, read-out: Activity
MDA-MB-435 = assay: Cytotoxicity against human MDA-MB-435 cells assessed as cell growth at 10^-4 M after 48 hrs by SRB assay; conditions: MDA-MB-435, 48 h, read-out: Activity
SF-295 = assay: Cytotoxicity against human SF295 cells assessed as cell growth at 10^-4 M after 48 hrs by SRB assay; conditions: SF-295, 48 h, read-out: Activity
HCT-116 = assay: Cytotoxicity against human HCT116 cells assessed as cell growth at 10^-4 M after 48 hrs by SRB assay; conditions: HCT-116, 48 h, read-out: Activity
SK-MEL-2 [7] = assay: Cytotoxicity against human SK-MEL-2 cells assessed as cell growth at 10^-8 M after 48 hrs by SRB assay; conditions: SK-MEL-2, 48 h, read-out: Activity
CCRF-CEM = assay: Cytotoxicity against human CCRF-CEM cells assessed as cell growth at 10^-4 M after 48 hrs by SRB assay; conditions: read-out: Activity
SF-268 = assay: Cytotoxicity against human SF268 cells assessed as cell growth at 10^-8 M after 48 hrs by SRB assay; conditions: SF-268, 48 h, read-out: Activity
KM12 = assay: Cytotoxicity against human KM12 cells assessed as cell growth at 10^-8 M after 48 hrs by SRB assay; conditions: KM12, 48 h, read-out: Activity
HT-29 = assay: Cytotoxicity against human HT-29 cells assessed as cell growth at 10^-8 M after 48 hrs by SRB assay; conditions: HT-29, 48 h, read-out: Activity
NCI-H322M = assay: Cytotoxicity against human NCI-H322M cells assessed as cell growth at 10^-8 M after 48 hrs by SRB assay; conditions: read-out: Activity
NCI-H23 [8] = assay: Cytotoxicity against human NCI-H23 cells assessed as cell growth at 10^-8 M after 48 hrs by SRB assay; conditions: NCI-H23, 48 h, read-out: Activity
NCI-H226 = assay: Cytotoxicity against human NCI-H226 cells assessed as cell growth at 10^-8 M after 48 hrs by SRB assay; conditions: NCI-H226, 48 h, read-out: Activity
HOP-62 = assay: Cytotoxicity against human HOP62 cells assessed as cell growth at 10^-8 M after 48 hrs by SRB assay; conditions: HOP-62, 48 h, read-out: Activity
RPMI-8226 = assay: Cytotoxicity against human RPMI8226 cells assessed as cell growth at 10^-8 M after 48 hrs by SRB assay; conditions: RPMI-8226, 48 h, read-out: Activity
K562 = assay: Cytotoxicity against human K562 cells assessed as cell growth at 10^-8 M after 48 hrs by SRB assay; conditions: K562, 48 h, read-out: Activity
T47D = assay: Cytotoxicity against human T47D cells after 48 hrs by SRB assay
RXF 393 = assay: Cytotoxicity against human RXF393 cells after 48 hrs by SRB assay; conditions: RXF 393, 48 h
SK-MEL-5 [9] = assay: Cytotoxicity against human SK-MEL-5 cells after 48 hrs by SRB assay; conditions: SK-MEL-5, 48 h
Malme-3M = assay: Cytotoxicity against human MALME-3M cells after 48 hrs by SRB assay
SW-620 = assay: Cytotoxicity against human SW620 cells after 48 hrs by SRB assay; conditions: SW-620, 48 h
COLO 205 = assay: Cytotoxicity against human COLO205 cells after 48 hrs by SRB assay; conditions: COLO 205, 48 h
DU-145 = assay: Cytotoxicity against human DU145 cells assessed as cell growth at 10^-6 M after 48 hrs by SRB assay; conditions: DU-145, 48 h, read-out: Activity
TK-10 = assay: Cytotoxicity against human TK10 cells assessed as cell growth at 10^-6 M after 48 hrs by SRB assay; conditions: TK-10, 48 h, read-out: Activity
IGROV-1 = assay: Cytotoxicity against human IGROV1 cells assessed as cell growth at 10^-6 M after 48 hrs by SRB assay; conditions: IGROV-1, 48 h, read-out: Activity
HOP-92 = assay: Cytotoxicity against human HOP92 cells assessed as cell growth at 10^-6 M after 48 hrs by SRB assay; conditions: HOP-92, 48 h, read-out: Activity
HL-60(TB) = assay: Cytotoxicity against human HL-60(TB) cells assessed as cell growth at 10^-6 M after 48 hrs by SRB assay; conditions: HL-60, 48 h, read-out: Activity
MDA-MB-468 = assay: Cytotoxicity against human MDA-MB-468 cells assessed as cell growth at 10^-7 M after 48 hrs by SRB assay; conditions: MDA-MB-468, 48 h, read-out: Activity
MDA-MB-231 [10] = assay: Cytotoxicity against human MDA-MB-231 cells assessed as cell growth at 10^-7 M after 48 hrs by SRB assay; conditions: MDA-MB-231, 48 h, read-out: Activity
SN12C = assay: Cytotoxicity against human SN12C cells assessed as cell growth at 10^-7 M after 48 hrs by SRB assay; conditions: read-out: Activity
786-0 = assay: Cytotoxicity against human 786-0 cells assessed as cell growth at 10^-7 M after 48 hrs by SRB assay; conditions: 786-0, 48 h, read-out: Activity
[11] = Cytotoxicity against human NCI-ADR-RES cells assessed as cell growth at 10^-7 M after 48 hrs by SRB assay; conditions: read-out: Activity

In the case of `C=CCn1c(C)nc2cc(Nc3nc(Nc4ccc5nc(C)n(CC=C)c5c4)c4ccccc4n3)ccc21`, the GI50 (NCI-H23 [1]) is reported as 2050 nM, the TGI (NCI-H23 [1]) is reported as 4200 nM and the growth at 0.1 µM (SK-MEL-2 [2]) is reported as 98%. The growth at 0.1 µM (SNB-19) was 88%, the growth at 0.01 µM [3] was 90% and the growth at 0.01 µM (MDA-MB-231 [4]) was 111%. For the same molecule, the growth at 100 µM [5] was -44%, the growth at 100 µM (SK-MEL-5 [6]) was -37% and the growth at 100 µM (MDA-MB-435) was -30%. For the same molecule, the growth at 100 µM (SF-295) was -85%, the growth at 100 µM (HCT-116) was 3% and the growth at 0.01 µM (SK-MEL-2 [7]) was 96%. For the same molecule, the growth at 100 µM (CCRF-CEM) was -19%, the growth at 0.01 µM (SF-268) was 95% and the growth at 0.01 µM (KM12) was 96%. For the same molecule, the growth at 0.01 µM (HT-29) was 103%, the growth at 0.01 µM (NCI-H322M) was 92% and the growth at 0.01 µM (NCI-H23 [8]) was 95%. It also gave a growth at 0.01 µM (NCI-H226) of 93%, a growth at 0.01 µM (HOP-62) of 98% and a growth at 0.01 µM (RPMI-8226) of 100%. For the same molecule, the growth at 0.01 µM (K562) was 103%, the GI50 (T47D) was 280 nM and the LC50 (T47D) was > 100000 nM. The TGI (T47D) was 909 nM, the GI50 (RXF 393) was 373 nM and the TGI (RXF 393) was 1790 nM. The GI50 (SK-MEL-5 [9]) was 1590 nM, the TGI (SK-MEL-5 [9]) was 3690 nM and the GI50 (Malme-3M) was 2270 nM. The TGI (Malme-3M) was 4100 nM, the GI50 (SW-620) was 195 nM and the TGI (SW-620) was 388 nM. The GI50 (COLO 205) was 195 nM, the TGI (COLO 205) was 375 nM and the growth at 1 µM (DU-145) was 18%. The growth at 1 µM (TK-10) was 30%, the growth at 1 µM (IGROV-1) was 82% and the growth at 1 µM (HOP-92) was 45%. For the same molecule, the growth at 1 µM (HL-60(TB)) was 90%, the growth at 0.1 µM (MDA-MB-468) was 89% and the growth at 0.1 µM (MDA-MB-231 [10]) was 101%. It also gave a growth at 0.1 µM (SN12C) of 92%, a growth at 0.1 µM (786-0) of 98% and a growth at 0.1 µM [11] of 100%.
